Reference: patent publication US20250041277A1, “METHODS AND DOSING REGIMENS COMPRISING A CDK2 INHIBITOR AND A CDK4 INHIBITOR FOR TREATING CANCER” (PFIZER INC., priority 2021, published 2025)

Tests used:
ABC1 = assay: Combinatorial activity in LUAD cell line ABC1; format: cell-based; conditions: Homo sapiens, ABC-1; ABC1, WT; single agent; read-out: (nM) s.a.
Method: (§1) Combinatorial activity of PF-07104091 and PF-07220060 was assessed in LUADs as single agents (s.a.) or in combination.

[1] = test system: T47D breast cancer cell line; assay: Cell proliferation combination assay (Loewe Volume, CI), T47D; format: cell-based, Human; conditions: T-47D cells; for Best CI: Best CI Level 70
Method: The combination effects of PF-07104091 and PF-07220060 were evaluated in a cell proliferation assay with MCF7 and T47D BC cell lines.
Drug combinations were analyzed using the Dose Equivalence Principle, and the Loewe Volume score. When modeling synergy using the Dose Equivalence Principle, the Loewe Volume score for the combination compounds should be greater than the compound self-cross controls, and the Combination Index (C) score for the combination compounds should be less than compound self-cross controls. […] The isobolograms set to an anti-proliferation threshold at 70% confirmed a synergistic response.

[2] = test system: NCI-H1792 lung adenocarcinoma (LUAD) cells; assay: Spheroid growth inhibition (SGI) assay, NCI-H1792; format: cell-based; conditions: NCI-H1792 spheroids; 30 nM palbociclib, 300 nM PF-07220060, 300 nM PF-07104091; 14 days
Method: NCI-H1792 and NCI-H23 lung adenocarcinoma (LUAD) cells lines were obtained from ATCC and maintained in RPMI 1640 medium supplemented with 10% fetal bovine serum and penicillin-streptomycin as per ATCC guidelines. Cells were maintained in humidified incubator at 37° C. with 5% CO2.
Spheroid assays were performed in 96 well ultralow attachment plates (ULA-96U) from Nexcelom & Thermo Fisher Scientific. […] To aid spheroid formation, dispensed cells were centrifuged at 220×g for 6 minutes in the ultralow attachment plates and allowed to form compact spheroids for 4 days prior to the initiation of treatment. […] DMSO (0.01%) was used as the vehicle control. DMSO and all compounds were diluted in cell medium. Medium and compounds were replenished twice per week, with 3 and 4-day intervals. Replenishment was executed by aspirating 150 μL of medium per well without disturbing the spheroid and then adding the same volume of premixed medium/compound solution to spheroids. Spheroid diameter was quantified immediately following each medium change twice a week (on every 3rd or 4th day) throughout the duration of the assay.
Average diameters of tumor spheroids were plotted in GraphPad Prism 8 and the AUC calculated. AUC baseline was determined by the average tumor spheroid diameter at Day 0 in the vehicle (DMSO) controls. Spheroid growth inhibition, or SGI, was calculated as follows: SGI=(1−AUC treatment/AUC DMSO)×100%. SGI for all treatment arms was derived at the timepoint when the vehicle (DMSO) treated spheroids reach their maximal diameter (usually close to 1 mm but this can differ among cell lines); this corresponds to the last time point taken for the vehicle (DMSO) treated spheroids. SEM was calculated based on n=10 to 12 wells per test group.
Growth of lung adenocarcinoma multicellular tumor spheroids (MCTS) was monitored over time to assess: (i) amplitude of response (SGI) and (ii) duration of response to the CDK4 inhibitor PF-07220060 as a single agent, and in combination with the CDK2 inhibitor PF-07104091.

CAL12T = assay: Combinatorial activity in LUAD cell line CAL12T; format: cell-based; conditions: Homo sapiens, CAL-12T, WT, single agent, read-out: (nM) s.a.
Method: as §1

A427 = assay: Combinatorial activity in LUAD cell line A427; format: cell-based; conditions: Homo sapiens, A-427; A427, KRAS G12D; single agent; read-out: (nM) s.a.
Method: as §1

NCIH2023 = assay: Combinatorial activity in LUAD cell line NCIH2023; format: cell-based; conditions: NCI-H2023; NCIH2023, WT; single agent; read-out: (nM) s.a.
Method: as §1

CALU6 = assay: Combinatorial activity in LUAD cell line CALU6; format: cell-based; conditions: Homo sapiens, Calu-6; CALU6, WT; single agent; read-out: (nM) s.a.
Method: as §1

[3] = test system: HCC1428 breast cancer model; assay: In vivo efficacy, HR+/HER2− HCC1428 breast cancer model (Example 4); set-up: species or system NSG mice; conditions: HCC1428, Day 42; PO BID: PF-07104091 120 mpk, PF-07220060 60 mpk, PF-06873600 30 mpk, palbociclib 10 mpk; fulvestrant 10 mpk SC
Method: Female NSG mice (Jackson Lab) were subcutaneously implanted with fragment (27 mm^3 to 64 mm^3 size) into the dorsal region. All mice for HCC1428, MCF7 and ST941 PBR studies were supplemented with 8.5 μg/mL estradiol water (β-Estradiol Sigma-Aldrich, cat #E2758-5G) and gave ad libitum till end of study. For the in vivo efficacy studies, tumor volume and body weights were measured twice a week. Tumor volume was calculated using the [(Length×Width×Width)/2)] formula. TGI was calculated as 100*(1−ΔT/ΔC). The ΔC (ΔT) was obtained by subtracting the mean tumor burden in the vehicle (treated) group on the first day of treatment (Day 0) from the mean tumor burden in vehicle (treated) group on the assessment day. Statistical analysis was performed using ANCOVA when the mean tumor volume in vehicle treated mice reached tumor cutoff size.
The HCC1428 model was established by implanting passage 1 tumor fragments into recipient mice. To establish the HCC1428 donor mice, tumor cells (5×10^6 cell/mouse with 50% Cultrex® Basement Membrane Matrix) were subcutaneously implanted in female NSG mice. Once reaching a range of 700 to 800 mm^3, donor tumors were subsequently transplanted into secondary recipient mice for a study expansion. […] PF-07104091 (lot 022), PF-07220060 (lot CPo126812-01-SY-5700-01), PF-06873600 (lot 022) and PD-0332991 (lot GR08498) were administered (PO) BID (7 hr apart) while fulvestrant (lot 20160224-2) at 10 mg/kg, SC twice in the first week, then weekly afterwards. All mice received treatment continuously until Day 42. TGI was assessed on Day 42 post first dose.

Row | IC50 (ABC1) [nM] | IC50 (CAL12T) [nM] | IC50 (A427) [nM] | IC50 (NCIH2023) [nM] | IC50 (CALU6) [nM] | SMILES | Loewe Volume [1] | Best CI [1] | SGI (%) [2] [%] | TGI % [3] [%]
1 | 408 | 210 | 124 | 310 | 155 | CC(C)n1c(C(C)(C)O)nc2c(F)cc(-c3nc(N[C@@H]4CCOC[C@H]4O)ncc3Cl)cc21 [PF-07220060, 1,5-anhydro-3-({5-chloro-4-[4-fluoro-2-(2-hydroxypropan-2-yl)-1-(propan-2-yl)-1H-benzimidazol-6-yl]pyrimidin-2-yl}amino)-2,3-dideoxy-D-threo-pentitol] | 0.00 | 0.97 | 81 | 70
2 | 716 | 220 | 276 | > 450 | 268 | COCc1cc(C(=O)Nc2cc([C@H]3CC[C@@H](OC(=O)NC(C)C)C3)[nH]n2)n(C)n1 [PF-07104091, (1R,3S)-3-[3-({[3-(methoxymethyl)-1-methyl-1H-pyrazol-5-yl]carbonyl}amino)-1H-pyrazol-5-yl]cyclopentyl propan-2-ylcarbamate] | 0.01 | 0.95 | 12 | 79
